Results published in US20260224548A1 (priority 2022, published 2026).
Read-outs that look alike come from different tables or passages of the source.

How the values were obtained:
MsEH = target: T1, MsEH (Mus musculus, UniProt P34914); assay: sEH inhibitory activity, PHOME fluorescence assay (MsEH); type: biochemical
T1 sequence (P34914 1-554): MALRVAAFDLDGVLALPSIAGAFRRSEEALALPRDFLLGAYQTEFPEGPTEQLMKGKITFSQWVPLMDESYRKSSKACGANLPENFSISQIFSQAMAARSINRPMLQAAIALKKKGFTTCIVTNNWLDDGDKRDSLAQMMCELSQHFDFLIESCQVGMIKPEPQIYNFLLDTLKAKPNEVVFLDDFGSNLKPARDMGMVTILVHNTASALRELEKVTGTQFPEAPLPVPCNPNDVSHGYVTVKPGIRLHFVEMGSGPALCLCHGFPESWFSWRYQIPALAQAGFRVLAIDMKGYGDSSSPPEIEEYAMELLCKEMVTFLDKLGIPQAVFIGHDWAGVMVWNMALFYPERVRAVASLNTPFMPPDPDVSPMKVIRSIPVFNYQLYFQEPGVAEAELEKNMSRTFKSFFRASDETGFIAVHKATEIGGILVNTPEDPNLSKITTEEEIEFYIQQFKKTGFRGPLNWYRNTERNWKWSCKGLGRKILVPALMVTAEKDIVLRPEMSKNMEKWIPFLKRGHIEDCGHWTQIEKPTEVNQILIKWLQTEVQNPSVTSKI

HsEH = target: T2, HsEH (Homo sapiens, UniProt P34913); assay: biochemical; type: biochemical
T2 sequence (P34913 1-555): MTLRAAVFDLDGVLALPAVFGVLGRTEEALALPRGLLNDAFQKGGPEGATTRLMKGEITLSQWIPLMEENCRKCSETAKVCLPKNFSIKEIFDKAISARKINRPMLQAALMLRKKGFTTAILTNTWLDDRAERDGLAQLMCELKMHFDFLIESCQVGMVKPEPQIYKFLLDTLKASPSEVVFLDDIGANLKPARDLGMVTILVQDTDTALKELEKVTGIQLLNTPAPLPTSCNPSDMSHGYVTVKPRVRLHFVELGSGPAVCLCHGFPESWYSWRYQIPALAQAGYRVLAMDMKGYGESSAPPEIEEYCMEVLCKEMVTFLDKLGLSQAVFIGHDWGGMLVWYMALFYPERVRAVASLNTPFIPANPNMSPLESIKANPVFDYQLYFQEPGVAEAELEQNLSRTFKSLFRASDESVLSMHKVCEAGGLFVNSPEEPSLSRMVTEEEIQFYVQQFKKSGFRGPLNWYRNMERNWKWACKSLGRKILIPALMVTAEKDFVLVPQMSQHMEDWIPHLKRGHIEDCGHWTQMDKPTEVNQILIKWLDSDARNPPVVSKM

Row | SMILES | IC50 (MsEH) [nM] | IC50 (HsEH) [nM] | IC50 (HsEH; PHOME substrate 50 μM, sEH 400 ng/ml, 37° C., 10 min, fluorescence 330/465 nm, read-out: HsEH IC50 (nM) Inhibitory activity against HsEH) [nM]
1 | CCC(=O)N1CCC(CC(=O)N2CCCN(C(=O)c3ccc(NC(=O)NC45CC6CC(C)(CC(C)(C6)C4)C5)c(F)c3)CC2)CC1 [CC-105, 1-((1r,3R,5S, 7r)-3,5-dimethyladamantan-1-yl)-3-(2-fluoro-4-(4-(2-(1-propionylpiperidin-4-yl)acetyl)-1,4-diaza-1-carbonyl)phenyl) urea] | 0.39 | 0.9 | –
2 | CC12CC3CC(C)(C1)CC(NC(=O)Nc1ccc(C(=O)N[C@H]4CC[C@H](C(=O)N(CCO)CCO)CC4)cc1F)(C3)C2 [ZT-112, N-((1r,4R)-4-(bis(2-hydroxyethyl)carbamoyl)cyclohexyl)-4-(3-((1r,3R,5S,7r)-3,5-dimethyladamantan-1-yl)ureido)-3-fluorobenzamide] | 0.23 | – | 2.94
